From publication PMC6198280, “Chemical Instability and Promiscuity of Arylmethylidenepyrazolinone-Based MDMX Inhibitors” (ACS Chemical Biology, 2018)

Molecular target: T1, MDMX (Homo sapiens, UniProt O15151)
T1 construct: gene MDM4
T1 sequence (O15151 1-120): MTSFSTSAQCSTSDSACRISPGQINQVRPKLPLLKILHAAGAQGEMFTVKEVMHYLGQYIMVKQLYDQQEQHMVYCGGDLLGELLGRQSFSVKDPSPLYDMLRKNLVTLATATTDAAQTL
Test: ITC; MALDI-TOF MS of covalent adducts, no reducing agent
Type: binding

- Kd: > 13 µM
Compound: CCOc1cc(/C=C2\C(=O)N(c3ccccc3)N=C2C)cc(Cl)c1OCC(=O)OC [compound 1, SJ-172550]
